Experimental data reported in publication PMC12084410, “Reconstruction of the ancient cyanobacterial proto-circadian clock system KaiABC” (The EMBO Journal, 2025).

Key:
KaiC [1] = target: T1, KaiC (Synechococcus elongatus, UniProt Q79PF4, S229T/T240N); experiment: HPLC ADP production (ATPase); assay type: biochemical; details: 1 mM ATP, 5 mM MgCl2, 150 mM NaCl, pH 8.0, 25 C
T1 construct: full-length (CI 1-268, CII 269-519), pGEX-6P-1 (GST) in E. coli BL21, purified, hexamer

KaiC [2] = target: T2, KaiC (Synechococcus elongatus, UniProt Q79PF4); experiment: HPLC ADP production (ATPase); assay type: biochemical; details: 1 mM ATP, 5 mM MgCl2, 150 mM NaCl, pH 8.0, 25 C
T2 construct: full-length (CI 1-268, CII 269-519), pGEX-6P-1 (GST) in E. coli BL21, purified, hexamer
T2 sequence (Q79PF4 1-519): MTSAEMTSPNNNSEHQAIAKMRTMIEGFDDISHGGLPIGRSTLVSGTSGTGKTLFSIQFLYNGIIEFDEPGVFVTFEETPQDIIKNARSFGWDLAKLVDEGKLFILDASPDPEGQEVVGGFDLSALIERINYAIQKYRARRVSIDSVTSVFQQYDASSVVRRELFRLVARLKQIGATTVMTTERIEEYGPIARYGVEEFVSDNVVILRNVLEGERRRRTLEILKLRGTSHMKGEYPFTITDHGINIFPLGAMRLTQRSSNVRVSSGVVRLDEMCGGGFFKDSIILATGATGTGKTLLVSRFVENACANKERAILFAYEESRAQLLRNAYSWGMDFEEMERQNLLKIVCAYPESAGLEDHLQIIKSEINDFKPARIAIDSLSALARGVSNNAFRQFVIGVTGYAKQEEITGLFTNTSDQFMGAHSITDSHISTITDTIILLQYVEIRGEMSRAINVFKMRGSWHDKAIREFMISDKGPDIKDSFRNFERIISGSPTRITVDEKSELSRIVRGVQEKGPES

T1 sequence (Q79PF4 whole entry S229T/T240N): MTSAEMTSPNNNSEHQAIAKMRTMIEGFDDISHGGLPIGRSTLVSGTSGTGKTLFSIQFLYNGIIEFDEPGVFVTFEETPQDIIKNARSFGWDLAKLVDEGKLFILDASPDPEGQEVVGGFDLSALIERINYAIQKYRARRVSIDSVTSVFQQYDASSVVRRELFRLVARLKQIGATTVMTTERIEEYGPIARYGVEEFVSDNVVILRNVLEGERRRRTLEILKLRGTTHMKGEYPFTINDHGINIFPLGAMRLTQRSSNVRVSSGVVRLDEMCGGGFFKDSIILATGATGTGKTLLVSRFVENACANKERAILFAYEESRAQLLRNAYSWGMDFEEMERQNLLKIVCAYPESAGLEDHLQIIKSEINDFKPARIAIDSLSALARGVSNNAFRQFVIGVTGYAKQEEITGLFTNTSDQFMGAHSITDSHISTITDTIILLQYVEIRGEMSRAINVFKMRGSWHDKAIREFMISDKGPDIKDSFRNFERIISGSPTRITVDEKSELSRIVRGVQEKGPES

Nc1ncnc2c1ncn2[C@@H]1O[C@H](COP(=O)(O)OP(=O)(O)OP(=O)(O)O)[C@@H](O)[C@H]1O [ATP]
HPLC ADP production (ATPase) (KaiC [1]): the activity of ATP hydrolysis was significantly repressed in the double mutants
HPLC ADP production (ATPase) (KaiC [2]): ATPase activity of anKaiC was significantly lower than that of KaiC
